Measured values reported in the NIST ThermoML archive (doi:10.1016/j.fluid.2013.05.012).
Values joined by “and” are separate entries in the source; they are usually repeats but may differ in a detail not shown here. Equal entries are not always repeated.

Settings: 101.33 kPa, Liquid; for mass density: Vibrating tube method; for viscosity: Vibrating wire viscometry

CCCCCC[n+]1ccn(C)c1.O=S(=O)([N-]S(=O)(=O)C(F)(F)F)C(F)(F)F
Settings	mass density [kg/m3]	viscosity
288.15 K	1381.24	–
293.14 K	–	90.27 mPa·s
293.16 K	1376.63	–
298.16 K	1372.04	–
298.18 K	–	70.9 mPa·s and 70.95 mPa·s
303.13 K	–	56.93 mPa·s
303.15 K	1367.46	–
303.16 K	1367.45	–
308.13 K	–	46.15 mPa·s
308.16 K	1362.88	–
313.09 K	–	38.05 mPa·s
313.15 K	1358.32	–
318.1 K	–	31.74 mPa·s
318.15 K	1353.76	–
318.16 K	1353.77	–
323.1 K	–	26.73 mPa·s
323.15 K	1349.23	–
323.16 K	1349.24	–
328.15 K	1344.72	–

CCOS(=O)(=O)[O-].CCn1cc[n+](C)c1 [1-ethyl-3-methylimidazolium ethyl sulfate]
Settings	mass density	viscosity [mPa·s]
288.15 K	1245.23 kg/m3	–
288.16 K	1245.23 kg/m3	–
290.64 K	1243.55 kg/m3	–
290.65 K	1243.55 kg/m3	–
293.14 K	1241.85 kg/m3	128.2
293.15 K	1241.85 kg/m3	–
295.65 K	1240.17 kg/m3 and 1240.15 kg/m3	–
298.15 K	1238.47 kg/m3 and 1238.45 kg/m3	–
298.19 K	–	98.87
298.2 K	–	98.63
300.65 K	1236.77 kg/m3 and 1236.76 kg/m3	–
303.15 K	1235.08 kg/m3 and 1235.06 kg/m3	–
303.16 K	–	77.83
305.65 K	1233.38 kg/m3	–
308.15 K	1231.69 kg/m3	–
308.19 K	–	62.54
310.64 K	1230.01 kg/m3	–
310.65 K	1230.01 kg/m3	–
313.14 K	1228.32 kg/m3	51.1
315.65 K	1226.63 kg/m3 and 1226.64 kg/m3	–
318.14 K	–	42.22
318.15 K	1224.95 kg/m3	–
320.64 K	1223.27 kg/m3 and 1223.28 kg/m3	–
323.1 K	–	35.37
323.14 K	1221.6 kg/m3	–
323.15 K	1221.6 kg/m3	–
325.64 K	1219.92 kg/m3	–
325.65 K	1219.92 kg/m3	–
328.15 K	1218.26 kg/m3	–

CCOS(=O)(=O)[O-].CC[n+]1cccc(C)c1 [1-ethyl-3-methylpyridinium ethylsulfate]
Settings	mass density	viscosity [mPa·s]
293.13 K	–	181.5
293.15 K	1225.08 kg/m3	–
293.16 K	1225.08 kg/m3	–
295.64 K	1223.43 kg/m3	–
295.65 K	1223.43 kg/m3	–
298.15 K	1221.79 kg/m3	–
298.16 K	1221.8 kg/m3	–
298.18 K	–	133.7
298.2 K	–	133.8
300.65 K	1220.15 kg/m3	–
300.66 K	1220.15 kg/m3	–
303.13 K	–	102.1
303.14 K	1218.51 kg/m3	–
303.15 K	1218.5 kg/m3	–
305.64 K	1216.85 kg/m3	–
305.65 K	1216.85 kg/m3	–
308.15 K	1215.21 kg/m3 and 1215.2 kg/m3	–
308.16 K	–	79.18
310.65 K	1213.56 kg/m3	–
310.66 K	1213.56 kg/m3	–
313.14 K	–	62.73
313.15 K	1211.91 kg/m3	–
315.65 K	1210.27 kg/m3	–
315.66 K	1210.27 kg/m3	–
318.08 K	–	50.65
318.15 K	1208.63 kg/m3 and 1208.64 kg/m3	–
320.65 K	1207 kg/m3	–
